According to patent publication US12091425B2 (AMGEN INC., priority 2016, dated 2024):

Target: T1, Mcl-1/Bim interaction, recombinant human Mcl-1 (171-327) (Homo sapiens, UniProt Q07820)
T1 construct: made in house
Assay: Cell free Mcl-1: Bim Affinity Assay (Mcl-1 HTRF)
Format: binding
How it was run: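 Read-out is time-resolved FRET after overnight incubation, using a biotin-labelled peptide from human Bim (51-76) as the binding partner; IC50 was derived from competition curves.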

[1] = TR-FRET, 0.1 nM Mcl-1 (171-327), 0.05 nM biotin-Bim (51-76)
[2] = cell free Mcl-1:Bim TR-FRET, recombinant human Mcl-1 (171-327)

T1 sequence (Q07820 171-327): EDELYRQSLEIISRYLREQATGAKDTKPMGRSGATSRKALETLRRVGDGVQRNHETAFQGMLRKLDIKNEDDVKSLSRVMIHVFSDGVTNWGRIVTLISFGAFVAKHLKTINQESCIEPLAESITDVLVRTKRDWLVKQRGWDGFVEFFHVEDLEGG

IC50 [1] [nM] | IC50 [2] [nM] | Compound
2.45 |  | O=C1NS(=O)(=O)[C@H]2C[C@@H](/C=C/[C@H](O)[C@@H]3CC[C@H]3CN3C[C@@]4(CCCc5cc(Cl)ccc54)COc4ccc1cc43)C2 [Example 100, (1S,3′R,6′R,7′S,8′E,10′S,12′R)-6-chloro-7′-hydroxy-3,4-dihydro-2H,15′H-spiro[naphthalene-1,22′-[20]oxa[13]thia[1,14]diazapentacyclo[14.7.2.1^10,12.0^3,6.0^19,24]hexacosa[8,16,18,24]tetraen]-15′-one 13′,13′-dioxide]
1.43 |  | O=C1NS(=O)(=O)[C@H]2C[C@H](CC[C@H](O)[C@@H]3CC[C@H]3CN3C[C@@]4(CCCc5cc(Cl)ccc54)COc4ccc1cc43)C2 [Example 103, (1S,3′R,6′R,7′S,10′R,12′R)-6-chloro-7′-hydroxy-3,4-dihydro-2H,15′H-spiro[naphthalene-1,22′-[20]oxa[13]thia[1,14]diazapentacyclo[14.7.2.1^10,120^3,6.0^19,24]hexacosa[16,18,24]trien]-15′-one 13′,13′-dioxide]
2.71 |  | C[C@@H]1[C@@H](C)C[C@H](CCN2CCOCC2)/C=C/[C@@H]2CC[C@H]2CN2C[C@@]3(CCCc4cc(Cl)ccc43)COc3ccc(cc32)C(=O)NS1(=O)=O [Example 115, (1S,3′R,6′S,7′E,9′R,11′S,12′R)-6-chloro-11′,12′-dimethyl-9′-(2-(4-morpholinyl)ethyl)-3,4-dihydro-2H,15′H-spiro[naphthalene-1,22′-[20]oxa[13]thia[1,14]diazatetracyclo[14.7.2.0^3,6.0^19,24]pentacosa[7,16,18,24]tetraen]-15′-one 13′,13′-dioxide]
2.69 |  | O=C1NS(=O)(=O)CC[C@H](CO)/C=C/[C@H](O)[C@@H]2CC[C@H]2CN2C[C@@]3(CCCc4cc(Cl)ccc43)COc3ccc1cc32 [Example 201, (1S,3′R,6′R,7′S,8′E,10′S)-6-chloro-7′-hydroxy-10′-(hydroxymethyl)-3,4-dihydro-2H,15′H-spiro[naphthalene-1,22′-[20]oxa[13]thia[1,14]diazatetracyclo[14.7.2.0^3,6.0^19,24]pentacosa [8,16,18,24]tetraen]-15′-one 13′,13′-dioxide]
23.1 |  | CO[C@@H]1/C=C/CCS(=O)(=O)NC(=O)c2ccc3c(c2)N(C[C@@H]2CC[C@H]21)C[C@@]1(CCCc2cc(Cl)ccc21)CO3 [Example 225, (1S,3′R,6′R,7′R,8′E)-6-chloro-7′-methoxy-3,4-dihydro-2H,14′H-spiro[naphthalene-1,21′-[19]oxa[12]thia[1,13]diazatetracyclo[13.7.2.0^3,6.0^18,23]tetracosa [8,15,17,23]tetraen]-14′-one 12′,12′-dioxide]
25.6 |  | CO[C@@H]1CCCCS(=O)(=O)NC(=O)c2ccc3c(c2)N(C[C@@H]2CC[C@H]21)C[C@@]1(CCCc2cc(Cl)ccc21)CO3 [Example 226]
32.3 |  | CO[C@@H]1CCCCCCS(=O)(=O)NC(=O)c2ccc3c(c2)N(C[C@@H]2CC[C@H]21)C[C@@]1(CCCc2cc(Cl)ccc21)CO3 [Example 230, (1S,3′R,6′R,7′R)-6-chloro-7′-methoxy-3,4-dihydro-2H,16′H-spiro[naphthalene-1,23′-[21]oxa[14]thia[1,15]diazatetracyclo[15.7.2.0^3,6.0^20,25]hexacosa[17,19,25]trien]-16′-one 14′,14′-dioxide]
7.07 |  | O=C1NS(=O)(=O)C/C=C/[C@H](O)[C@@H]2CC[C@H]2CN2C[C@@]3(CCCc4cc(Cl)ccc43)COc3ccc1cc32 [Example 341, (1S,3′R,6′R,7′S,8′E)-6-chloro-7′-hydroxy-3,4-dihydro-2H,13′H-spiro[naphthalene-1,20′-[18]oxa[11]thia[1,12]diazatetracyclo[12.7.2.0^3,6.0^17,22]tricosa[8,14,16,22]tetraen]-13′-one 11′,11′-dioxide]
5 |  | O=C1NS(=O)(=O)CCC[C@H](O)[C@@H]2CC[C@H]2CN2C[C@@]3(CCCc4cc(Cl)ccc43)COc3ccc1cc32 [Example 342, (1S,3′R,6′R,7′S)-6-chloro-7′-hydroxy-3,4-dihydro-2H,13′H-spiro[naphthalene-1,20′-[18]oxa[11]thia[1,12]diazatetracyclo[12.7.2.0^3,6.0^17,22]tricosa[14,16,22]trien]-13′-one 11′,11′-dioxide]
4.5 |  | O=C1CCCS(=O)(=O)NC(=O)c2ccc3c(c2)N(C[C@@H]2CC[C@H]2CN1)C[C@@]1(CCCc2cc(Cl)ccc21)CO3 [Example 370, (1S,3′R,6′R)-6-chloro-3,4-dihydro-2H,9′H,15′H-spiro[naphthalene-1,22′-[20]oxa[13]thia[1,8,14]triazatetracyclo[14.7.2.0^3,6.0^19,24]pentacosa[16,18,24]triene]-9′,15′-dione 13′,13′-dioxide]
0.442 |  | CNC(=O)CO[C@H]1/C=C/CC[C@@H](C)S(=O)(=O)NC(=O)c2ccc3c(c2)N(C[C@@H]2CC[C@H]21)C[C@@]1(CCCc2cc(Cl)ccc21)CO3 [Example 404, 2-(((1S,3′R,6′R,7′S,8′E,12′R)-6-chloro-12′-methyl-13′,13′-dioxido-15′-oxo-3,4-dihydro-2H-spiro[naphthalene-1,22′-[20]oxa[13]thia[1,14]diazatetracyclo[14.7.2.0^3,6.0^19,24]pentacosa [8,16,18,24]tetraen]-7′-yl)oxy)-N-methylacetamide]
0.543 |  | COCCO[C@H]1/C=C/CC[C@@H](C)S(=O)(=O)NC(=O)c2ccc3c(c2)N(C[C@@H]2CC[C@H]21)C[C@@]1(CCCc2cc(Cl)ccc21)CO3 [Example 405, (1S,3′R,6′R,7′S,8′E,12′R)-6-chloro-7′-(2-methoxyethoxy)-12′-methyl-3,4-dihydro-2H,15′H-spiro[naphthalene-1,22′-[20]oxa[13]thia[1,14]diazatetracyclo[14.7.2.0^3,6.0^19,24]pentacosa [8,16,18,24]tetraen]-15′-one 13′,13′-dioxide]
0.602 |  | C[C@@H]1CC/C=C/[C@H](OCCS(C)(=O)=O)[C@@H]2CC[C@H]2CN2C[C@@]3(CCCc4cc(Cl)ccc43)COc3ccc(cc32)C(=O)NS1(=O)=O [Example 406, (1S,3′R,6′R,7′S,8′E,12′R)-6-chloro-12′-methyl-7′-(2-(methylsulfonyl)ethoxy)-3,4-dihydro-2H,15′H-spiro[naphthalene-1,22′-[20]oxa[13]thia[1,14]diazatetracyclo[14.7.2.0^3,6.0^19,24]pentacosa [8,16,18,24]tetraen]-15′-one 13′,13′-dioxide]
0.349 |  | C[C@@H]1CC/C=C/[C@H](OCC(=O)N(C)C)[C@@H]2CC[C@H]2CN2C[C@@]3(CCCc4cc(Cl)ccc43)COc3ccc(cc32)C(=O)NS1(=O)=O [Example 420, 2-(((1S,3′R,6′R,7′S,8′E,12′R)-6-chloro-12′-methyl-13′,13′-dioxido-15′-oxo-3,4-dihydro-2H-spiro[naphthalene-1,22′-[20]oxa[13]thia[1,14]diazatetracyclo[14.7.2.0^3,6.0^19,24]pentacosa [8,16,18,24]tetraen]-7′-yl)oxy)-N,N-dimethylacetamide]
0.865 |  | CC[C@@H]1CC/C=C/[C@H](OCC(=O)NC(C)C)[C@@H]2CC[C@H]2CN2C[C@@]3(CCCc4cc(Cl)ccc43)COc3ccc(cc32)C(=O)NS1(=O)=O [Example 422, 2-(((1S,3′R,6′R,7′S,8′E,12′R)-6-chloro-12′-ethyl-13′,13′-dioxido-15′-oxo-3,4-dihydro-2H-spiro[naphthalene-1,22′-[20]oxa[13]thia[1,14]diazatetracyclo[14.7.2.0^3,6.0^19,24]pentacosa [8,16,18,24]tetraen]-7′-yl)oxy)-N-(1-methylethyl)acetamide]
2.56 |  | COC[C@H]1CC/C=C/[C@H](O)[C@@H]2CC[C@H]2CN2C[C@@]3(CCCc4cc(Cl)ccc43)COc3ccc(cc32)C(=O)NS1(=O)=O [Example 435, (1S,3′R,6′R,7′S,8′E,12′R)-6-chloro-7′-hydroxy-12′-(methoxymethyl)-3,4-dihydro-2H,15′H-spiro[naphthalene-1,22′-[20]oxa[13]thia[1,14]diazatetracyclo[14.7.2.0^3,6.0^19,24]pentacosa [8,16,18,24]tetraen]-15′-one 13′,13′-dioxide]
0.785 |  | COC[C@@H]1CC/C=C/[C@H](OC)[C@@H]2CC[C@H]2CN2C[C@@]3(CCCc4cc(Cl)ccc43)COc3ccc(cc32)C(=O)NS1(=O)=O [Example 444, (1S,3′R,6′R,7′S,8′E,12′S)-6-chloro-7′-methoxy-12′-(methoxymethyl)-3,4-dihydro-2H,15′H-spiro[naphthalene-1,22′-[20]oxa[13]thia[1,14]diazatetracyclo[14.7.2.0^3,6.0^19,24]pentacosa [8,16,18,24]tetraen]-15′-one 13′,13′-dioxide]
 | 6.33 | O=C1NS(=O)(=O)CC/C=C/CC[C@@H]2CC[C@H]2CN2C[C@@]3(CCCc4cc(Cl)ccc43)COc3ccc1cc32 [Example 496, (1S,3′R,6′R,9′E)-6-chloro-3,4-dihydro-2H,15′H-spiro[naphthalene-1,22′-[20]oxa[13]thia[1,14]diazatetracyclo[14.7.2.0^3,6.0^19,24]pentacosa [10,16,18,24]tetraen]-15′-one 13′,13′-dioxide]
 | 24 | O=C1NS(=O)(=O)CC/C=C\CC[C@@H]2CC[C@H]2CN2C[C@@]3(CCCc4cc(Cl)ccc43)COc3ccc1cc32 [Example 499, (1S,3′R,6′R,9′Z)-6-chloro-3,4-dihydro-2H,15′H-spiro[naphthalene-1,22′-[20]oxa[13]thia[1,14]diazatetracyclo[14.7.2.0^3,6.0^19,24]pentacosa [9,16,18,24]tetraen]-15′-one 13′,13′-dioxide]
 | 1.83 | CC[C@@H]1CCCCC[C@H](O)[C@@H]2CC[C@H]2CN2C[C@@]3(CCCc4cc(Cl)ccc43)COc3ccc(cc32)C(=O)NS1(=O)=O [Example 554, (1S,3′R,6′R,7′S,13′R)-6-chloro-13′-ethyl-7′-hydroxy-3,4-dihydro-2H,16′H-spiro[naphthalene-1,23′-[21]oxa[14]thia[1,15]diazatetracyclo[15.7.2.0^3,6.0^20,25]hexacosa[17,19,25]trien]-16′-one 14′,14′-dioxide]

Compound | IC50 [1] [nM] | IC50 [2] [nM]
COC(=O)C1CCN(C(=O)[C@H]2CC/C=C\[C@H](O)[C@@H]3CC[C@H]3CN3C[C@@]4(CCCc5cc(Cl)ccc54)COc4ccc(cc43)C(=O)NS2(=O)=O)CC1 [Example 143] | 2 | 
